From US20100204224A1, “AZACYCLIC COMPOUNDS AS INHIBITORS OF SENSORY NEURONE SPECIFIC SODIUM CHANNELS” (priority 2005, published 2010) come the findings set out here.

Molecules are shown by their SMILES. Where a name gives a salt, the structure may show the parent alone.

In the first experiment the target is T1, human Nav1.8 (hNav1.8) ion channel (Homo sapiens, UniProt Q9Y5Y9).
T1 construct: expressed in transfected cells
T1 sequence (Q9Y5Y9 whole entry): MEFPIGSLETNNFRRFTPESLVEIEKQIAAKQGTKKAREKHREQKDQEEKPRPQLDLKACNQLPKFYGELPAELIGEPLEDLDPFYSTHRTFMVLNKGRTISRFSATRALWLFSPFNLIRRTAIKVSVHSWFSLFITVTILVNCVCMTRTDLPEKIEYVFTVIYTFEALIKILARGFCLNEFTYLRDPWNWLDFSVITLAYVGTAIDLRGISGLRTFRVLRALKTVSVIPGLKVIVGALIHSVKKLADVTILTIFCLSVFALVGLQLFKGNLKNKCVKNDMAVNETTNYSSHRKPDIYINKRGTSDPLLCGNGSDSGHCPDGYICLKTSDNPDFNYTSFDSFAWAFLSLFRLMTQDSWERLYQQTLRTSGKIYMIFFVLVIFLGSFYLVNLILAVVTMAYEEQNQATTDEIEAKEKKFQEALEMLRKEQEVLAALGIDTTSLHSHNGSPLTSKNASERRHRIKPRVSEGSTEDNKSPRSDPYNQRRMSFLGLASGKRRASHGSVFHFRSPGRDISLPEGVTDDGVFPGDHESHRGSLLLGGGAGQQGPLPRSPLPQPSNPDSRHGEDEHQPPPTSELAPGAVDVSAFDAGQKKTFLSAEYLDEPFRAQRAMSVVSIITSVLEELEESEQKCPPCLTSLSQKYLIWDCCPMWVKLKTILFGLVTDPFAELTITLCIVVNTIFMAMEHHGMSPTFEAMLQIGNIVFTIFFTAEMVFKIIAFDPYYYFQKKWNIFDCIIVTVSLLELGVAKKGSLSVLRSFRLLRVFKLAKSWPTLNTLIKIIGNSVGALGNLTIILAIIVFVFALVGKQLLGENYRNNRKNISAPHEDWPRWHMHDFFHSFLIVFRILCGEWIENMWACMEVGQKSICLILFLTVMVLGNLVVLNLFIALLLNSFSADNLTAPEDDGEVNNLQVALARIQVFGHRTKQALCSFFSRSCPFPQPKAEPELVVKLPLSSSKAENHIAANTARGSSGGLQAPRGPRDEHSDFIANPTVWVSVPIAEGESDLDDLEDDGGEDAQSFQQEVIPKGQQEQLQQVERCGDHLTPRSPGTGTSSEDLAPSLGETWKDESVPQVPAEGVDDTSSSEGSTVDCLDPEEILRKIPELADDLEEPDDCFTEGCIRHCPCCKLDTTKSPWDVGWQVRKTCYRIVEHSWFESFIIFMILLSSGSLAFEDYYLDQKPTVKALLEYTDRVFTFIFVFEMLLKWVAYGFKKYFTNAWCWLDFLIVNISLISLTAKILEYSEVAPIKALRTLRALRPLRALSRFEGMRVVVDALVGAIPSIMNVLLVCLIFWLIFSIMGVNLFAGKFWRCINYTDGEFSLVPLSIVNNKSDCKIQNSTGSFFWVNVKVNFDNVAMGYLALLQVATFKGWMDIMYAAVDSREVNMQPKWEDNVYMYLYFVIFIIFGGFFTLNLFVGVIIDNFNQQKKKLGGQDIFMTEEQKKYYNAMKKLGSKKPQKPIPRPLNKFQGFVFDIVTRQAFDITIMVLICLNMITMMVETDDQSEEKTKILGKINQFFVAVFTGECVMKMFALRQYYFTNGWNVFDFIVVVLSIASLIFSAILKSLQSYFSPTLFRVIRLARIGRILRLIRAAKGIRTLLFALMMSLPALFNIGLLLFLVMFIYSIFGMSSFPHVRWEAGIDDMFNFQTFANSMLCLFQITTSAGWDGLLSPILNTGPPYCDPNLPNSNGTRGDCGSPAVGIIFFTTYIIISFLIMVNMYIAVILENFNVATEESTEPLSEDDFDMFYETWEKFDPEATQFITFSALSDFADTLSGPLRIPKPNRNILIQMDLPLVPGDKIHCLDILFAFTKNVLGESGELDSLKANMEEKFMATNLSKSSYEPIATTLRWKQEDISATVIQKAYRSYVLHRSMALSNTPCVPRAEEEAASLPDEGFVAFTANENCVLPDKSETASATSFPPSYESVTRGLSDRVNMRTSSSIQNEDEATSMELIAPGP
Kind of experiment: Inhibition of human Nav1.8 stably expressed in SH-SY-5Y cells (membrane potential dye fluorescence assay). In kind it is cell-based. Particulars: SH-SY-5Y hNav1.8 cells; FLIPR membrane potential dye; 10 μM pyrethroid, 250 nM TTX; test concentration range 100 μM-0.05 μM; read-out: hNav1.8 IC50.
On to `O=C(Nc1ccc(C(F)(F)F)cc1)N1CC2CC1CN2C1CCc2ccccc2C1` (centres unmarked) [Example 77, 5-(1,2,3,4-Tetrahydro-naphthalen-2-yl)-2,5-diaza-bicyclo[2.2.1]heptane-2-carboxylic acid (4-trifluoromethyl-phenyl)-amide], for which the IC50 came out at 590 nM.

On to `CC(Cc1ccccc1F)N1CC2CC1CN2C(=O)Nc1ccc(C(F)(F)F)cc1` (centres unmarked) [Example 79, 5-[2-(2-Fluoro-phenyl)-1-methyl-ethyl]-2,5-diaza-bicyclo[2.2.1]heptane-2-carboxylic acid (4-trifluoromethyl-phenyl)-amide], for which the IC50 was found to be 780 nM.

With `CC(Cc1ccc(F)cc1)N1CC2CC1CN2C(=O)Nc1ccc(C(F)(F)F)cc1` (centres unmarked) [Example 80, 5-[2-(4-Fluoro-phenyl)-1-methyl-ethyl]-2,5-diaza-bicyclo[2.2.1]heptane-2-carboxylic acid (4-trifluoromethyl-phenyl)-amide], the concentration for half-maximal inhibition (IC50) is 490 nM.

For the molecule `CC(C(C#N)c1ccccc1)N1CC2CC1CN2C(=O)Nc1ccc(C(F)(F)F)cc1` (centres unmarked) [Example 81, 5-(2-Cyano-1-methyl-2-phenyl-ethyl)-2,5-diaza-bicyclo[2.2.1]heptane-2-carboxylic acid (4-trifluoromethyl-phenyl)-amide], the concentration for half-maximal inhibition (IC50) came out at 26200 nM.

Consider `CC(Cc1ccccc1Cl)N1CC2CC1CN2C(=O)Nc1ccc(C(F)(F)F)cc1` (centres unmarked) [Example 82, 5-[2-(2-Chloro-phenyl)-1-methyl-ethyl]-2,5-diaza-bicyclo[2.2.1]heptane-2-carboxylic acid (4-trifluoromethyl-phenyl)-amide], for which the IC50 is 440 nM.

`CC(Cc1ccc(Cl)cc1)N1CC2CC1CN2C(=O)Nc1ccc(C(F)(F)F)cc1` (centres unmarked) [Example 83, 5-[2-(4-Chloro-phenyl)-1-methyl-ethyl]-2,5-diaza-bicyclo[2.2.1]heptane-2-carboxylic acid (4-trifluoromethyl-phenyl)-amide]: the IC50 was 680 nM.

Turning to `CC(Cc1ccc(Cl)cc1Cl)N1CC2CC1CN2C(=O)Nc1ccc(C(F)(F)F)cc1` (centres unmarked) [Example 84, 5-[2-(2,4-Dichloro-phenyl)-1-methyl-ethyl]-2,5-diaza-bicyclo[2.2.1]heptane-2-carboxylic acid (4-trifluoromethyl-phenyl)-amide], the IC50 was 1060 nM.

Turning to `CC(Cc1c(F)cccc1Cl)N1CC2CC1CN2C(=O)Nc1ccc(C(F)(F)F)cc1` (centres unmarked) [Example 85, 5-[2-(2-Chloro-6-fluoro-phenyl)-1-methyl-ethyl]-2,5-diaza-bicyclo[2.2.1]heptane-2-carboxylic acid (4-trifluoromethyl-phenyl)-amide], the 50% inhibitory concentration (IC50) turned out to be 630 nM.

For the molecule `COc1ccccc1CC(C)N1CC2CC1CN2C(=O)Nc1ccc(C(F)(F)F)cc1` (centres unmarked) [Example 86, 5-[2-(2-Methoxy-phenyl)-1-methyl-ethyl]-2,5-diaza-bicyclo[2.2.1]heptane-2-carboxylic acid (4-trifluoromethyl-phenyl)-amide], the IC50 was found to be 670 nM.

With `O=C(Nc1ccc(Oc2ccccc2)cc1)N1CCC2(CCN(Cc3ccccc3)C2)C1` (centres unmarked) [Example 88, 7-Benzyl-2,7-diaza-spiro[4.4]nonane-2-carboxylic acid (4-phenoxy-phenyl)-amide], the IC50 worked out at 390 nM.

For the molecule `O=C(Nc1ccc(Oc2ccccc2)cc1)N1CC2CN(Cc3ccccc3)CC2C1` (centres unmarked) [Example 89, 5-Benzyl-hexahydro-pyrrolo[3,4-c]pyrrole-2-carboxylic acid (4-phenoxy-phenyl)-amide], the IC50 came to 400 nM.

Regarding `CC(c1ccc(C#N)cc1)N1CC2CC1CN2C(=O)Nc1ccc(Oc2ccc(F)cc2)cc1` (centres unmarked) [Example 90, 5-[1-(4-Cyano-phenyl)-ethyl]-2,5-diaza-bicyclo[2.2.1]heptane-2-carboxylic acid [4-(4-fluoro-phenoxy)-phenyl]-amide], the 50% inhibitory concentration (IC50) is 1400 nM.

`CC(c1ccc(C#N)cc1)N1CC2CC1CN2C(=O)Nc1ccc(Oc2ccc(F)cc2)cc1` (centres unmarked) [Example 91, 5-[1-(4-Cyano-phenyl)-ethyl]-2,5-diaza-bicyclo[2.2.1]heptane-2-carboxylic acid [4-(4-fluoro-phenoxy)-phenyl]-amide]: the IC50 turned out to be 1050 nM.

For `O=C(Nc1ccc(Oc2ccc(F)cc2)cc1)N1CC2CC1CN2C1CCc2cc(F)ccc21` (centres unmarked) [Example 92, 5-(5-Fluoro-indan-1-yl)-2,5-diaza-bicyclo[2.2.1]heptane-2-carboxylic acid [4-(4-fluoro-phenoxy)-phenyl]-amide], the half-inhibitory concentration (IC50) came out at 360 nM.

For the molecule `O=C(Nc1ccc(Oc2ccc(F)cc2)cc1)N1CC2CC1CN2C1CCc2cc(F)ccc21` (centres unmarked) [Example 93, 5-(5-Fluoro-indan-1-yl)-2,5-diaza-bicyclo[2.2.1]heptane-2-carboxylic acid [4-(4-fluoro-phenoxy)-phenyl]-amide], the half-inhibitory concentration (IC50) came out at 310 nM.

`O=C(Nc1ccc(C(F)(F)F)cc1)N1CC2CC1CN2C1CCc2cc(F)ccc21` (centres unmarked) [Example 94, 5-(5-Fluoro-indan-1-yl)-2,5-diaza-bicyclo[2.2.1]heptane-2-carboxylic acid (4-trifluoromethyl-phenyl)-amide]: the IC50 was determined as 1890 nM.

Turning to `O=C(Nc1ccc(C(F)(F)F)cc1)N1CC2CC1CN2C1CCc2cc(F)ccc21` (centres unmarked) [Example 95, 5-(5-Fluoro-indan-1-yl)-2,5-diaza-bicyclo[2.2.1]heptane-2-carboxylic acid (4-trifluoromethyl-phenyl)-amide], the IC50 came to 1060 nM.

As for `CC(c1ccccc1Cl)N1CC2CC1CN2C(=O)Nc1ccc(Oc2ccc(F)cc2)cc1` (centres unmarked) [Example 96, 5-[1-(2-Chloro-phenyl)-ethyl]-2,5-diaza-bicyclo[2.2.1]heptane-2-carboxylic acid [4-(4-fluoro-phenoxy)-phenyl]-amide methanesulfonate salt], the IC50 was determined as 370 nM.

Regarding `O=C(Nc1ccc(Oc2ccc(F)cc2)cc1)N1CC2CC1CN2C1CCc2ccccc2C1` (centres unmarked) [Example 97, 5-(1,2,3,4-Tetrahydro-naphthalen-2-yl)-2,5-diaza-bicyclo[2.2.1]heptane-2-carboxylic acid [4-(4-fluoro-phenoxy)-phenyl]-amide], the half-maximal inhibitory concentration (IC50) is 310 nM.

As for `O=C(Nc1ccc(Oc2ccc(F)cc2)cc1)N1CC2CN(Cc3ccccc3)CC2C1` (centres unmarked) [Example 98, 5-Benzyl-hexahydro-pyrrolo[3,4-c]pyrrole-2-carboxylic acid [4-(4-fluoro-phenoxy)-phenyl]-amide], the 50% inhibitory concentration (IC50) came to 170 nM.

With `O=C(Nc1ccc(C(F)(F)F)cc1)N1CC2CC1CN2C1Cc2ccccc2C1` (centres unmarked) [Example 99, 5-Indan-2-yl-2,5-diaza-bicyclo[2.2.1]heptane-2-carboxylic acid (4-trifluoromethyl-phenyl)-amide], the IC50 amounted to 2380 nM.

Staying with this experiment, now noted: hNav1.8 IC50, SH-SY-5Y hNav1.8 cells; FLIPR membrane potential dye; 10 μM pyrethroid, 250 nM TTX; test concentration range 100 μM-0.05 μM.
`Cc1ccccc1C(C)N1CC2CC1CN2C(=O)Nc1ccc(Oc2ccc(F)cc2)cc1` (centres unmarked) [Example 78, 5-(1-o-Tolyl-ethyl)-2,5-diaza-bicyclo[2.2.1]heptane-2-carboxylic acid [4-(4-fluoro-phenoxy)-phenyl]-amide fumarate salt] gave an IC50 of 230 nM.

`Cc1ccccc1C(C)N1CC2CC1CN2C(=O)Nc1ccc(Oc2ccc(F)cc2)cc1` (centres unmarked) [Example 87, 5-(1-o-Tolyl-ethyl)-2,5-diaza-bicyclo[2.2.1]heptane-2-carboxylic acid [4-(4-fluoro-phenoxy)-phenyl]-amide methanesulfonate salt] returned an IC50 of 600 nM.

Broadly, the IC50 is the concentration that inhibits the measured activity by half.
